Test results from patent US11407725B2 (The Board of Trustees of the University of Illinois, priority 2018, dated 2022).
Like-named read-outs stand apart in the source and are kept apart here.

T1: ALDH1A1 (Homo sapiens, UniProt P00352)
T1 construct: made in house
T1 sequence (P00352 1-501): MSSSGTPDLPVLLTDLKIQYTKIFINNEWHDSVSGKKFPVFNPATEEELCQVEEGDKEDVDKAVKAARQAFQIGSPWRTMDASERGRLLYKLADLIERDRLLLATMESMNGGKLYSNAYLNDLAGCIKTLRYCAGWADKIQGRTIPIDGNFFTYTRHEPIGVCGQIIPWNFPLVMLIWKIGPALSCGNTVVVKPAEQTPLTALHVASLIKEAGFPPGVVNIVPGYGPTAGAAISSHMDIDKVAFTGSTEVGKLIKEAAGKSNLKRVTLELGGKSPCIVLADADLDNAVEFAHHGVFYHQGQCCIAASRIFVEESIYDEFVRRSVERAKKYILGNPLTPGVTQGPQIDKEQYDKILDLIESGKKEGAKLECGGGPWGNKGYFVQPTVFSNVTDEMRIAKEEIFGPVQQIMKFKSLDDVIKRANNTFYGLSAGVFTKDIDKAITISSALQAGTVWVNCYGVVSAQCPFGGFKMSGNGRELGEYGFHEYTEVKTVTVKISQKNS

T2: ALDH1A3 (Homo sapiens, UniProt P47895)
T2 construct: made in house
T2 sequence (P47895 1-512): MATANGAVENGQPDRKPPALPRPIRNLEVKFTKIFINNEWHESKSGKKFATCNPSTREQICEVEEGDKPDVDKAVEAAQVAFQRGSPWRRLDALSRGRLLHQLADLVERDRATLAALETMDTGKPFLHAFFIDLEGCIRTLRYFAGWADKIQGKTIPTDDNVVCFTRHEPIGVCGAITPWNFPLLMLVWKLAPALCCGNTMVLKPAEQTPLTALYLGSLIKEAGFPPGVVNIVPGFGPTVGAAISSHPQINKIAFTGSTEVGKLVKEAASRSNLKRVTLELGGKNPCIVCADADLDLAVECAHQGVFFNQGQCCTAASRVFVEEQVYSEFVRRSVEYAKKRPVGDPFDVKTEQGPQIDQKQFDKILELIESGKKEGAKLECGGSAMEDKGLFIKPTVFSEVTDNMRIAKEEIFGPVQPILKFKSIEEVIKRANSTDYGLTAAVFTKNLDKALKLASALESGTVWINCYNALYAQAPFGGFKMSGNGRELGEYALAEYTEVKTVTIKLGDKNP

B1: ALDH1A1 (Homo sapiens) (protein)
chain: T1 sequence (P00352 1-501)
notes: made in house

Tests used:
[1] = test system: e-CSC and non-CSC melanoma lung metastases; assay: Ex vivo lung metastases imaging; format: in vivo, mice; conditions: lungs perfused ex vivo, day 7 and 11
Method: Six to eight-week-old female C57BL/6J mice were purchased from Jackson Laboratory. Experimental metastases were established by injecting 2×10^5 melanoma cells via lateral tail vein injection. Mice were euthanized at either 7- or 11-days post injection. Immediately after euthanization, their lungs were excised and perfused with about 1 mL of either 15 μM AlDeSense AM or 15 μM Ctrl-AlDeSense AM in PBS. Outer portions of the lungs were rinsed in 15 mL of PBS to remove blood or excess dyes. After 2 hours incubation at room temperature (25° C.), the lungs were imaged on the IVIS spectrum imaging system (Perkin Elmer). Data was processed using Living Image software (Version 4.1).

[2] = test system: K562 cells; assay: Trypan blue cytotoxicity / viability assay; format: cell-based
Method: K562 cells were plated in a 96-well plate with 50,000 cells per well. Each well was filled to a final volume of 100 μL IMDM media with 0.25% DMSO. Wells were tested using red-AlDeSense or Ctrl-red-AlDeSense (1 μM and 5 μM each) or using a DMSO control. After 6-, 12-, and 24-hour incubation periods at 37° C. and 5% CO2, a 10 μL sample was removed from each condition and combined with 10 μL 0.4% w/v trypan blue in PBS. Samples were incubated for 3 minutes at room temperature before being loaded on a hemocytometer where live and dead cells were counted. Conditions were tested in triplicate for each time point. Samples were analyzed on an EVOS digital inverted microscope using transmitted white light for brightfield imaging and the Cy5 filter cube for trypan blue visualization.
K562 cells were plated in a 96-well plate at a density of 500,000 cells/mL in full IMDM media supplemented with either 1 μM or […] AlDeSense AM. Equivalent samples were supplemented with 1 μM or […] as a vehicle control. At 6, 12, and 24 hours, a 10 μL sample was removed from each of the samples and mixed 1:1 with a 0.4% wt/volume trypan blue solution in PBS. Samples were incubated for 1 minute at room temperature before being loaded onto a hemocytometer where live and dead cells were counted. Each sample was made in triplicate for each time point.

[3] = test system: e-CSC and non-CSC B16F0 tumors; assay: In vivo melanoma tumor fluorescence imaging; set-up: species or system mice; conditions: 1 and 2 weeks
[4] = Log D7.4; format: physicochemical; conditions: pH 7.4
[5] = pKa determination (pH profile of fluorescence); conditions: Britton-Robinson buffer
Method: The fluorescence of 1 μM of each compound was measured in 40 mM Britton-Robinson buffer at pH 2-9 in 0.5 pH intervals. Each measurement was performed in triplicate. […] Error bars are ±standard deviation (SD).

[6] = biological target: T1, ALDH1A1; assay: Fluorescence turn-on of AlDeSense with recombinant ALDH1A1; format: biochemical; conditions: fluorescent enhancement when treated with ALDH1A1; 1 μM probe
Method: Activation of AlDeSense was assessed using 20 units of each ALDH isoform. Activity was determined by activity measurements using each isoform's preferred substrate (1 unit=1 μmol substrate turned over/mol enzyme/min). Further details are in the supplementary information. All enzymatic reactions were performed in 50 mM triethanolamine buffer (pH 7.4, Thermo Fisher) with 2.5 mM NAD+(Alfa Aesar) and 5% v/v DMSO (Thermo Fisher) in a 1 mL quartz cuvette at room temperature.
AlDeSense activation was determined using fluorescence. Immediately before measurement, AlDeSense (1 μM) was added to a quartz cuvette. After vigorous mixing, the reaction was monitored at room temperature for 15 min. Fluorescence spectra were acquired according to following parameters: λex=498 nm, and emission range=505-580 nm. All scans were normalized to the signal from AlDeSense in 50 mM TEA and 2.5 mM NAD+(without enzyme). Endpoint measurements at 15 min were performed in triplicate and reported as the averages±standard deviation.

[7] = Photophysical properties (absorbance, emission, extinction coefficient, quantum yield); format: physicochemical; conditions: for Quantum Yield: Probes 1-8
[8] = biological target: T2, ALDH1A3; assay: ALDH isoform selectivity of red probes: ALDH1A3; format: biochemical; conditions: for Enzyme Activity 1A3: Table 2
Method: (§1) Each ALDH isoform was added to a 50 mM triethanolamine solution (pH 7.4) containing 2.0 mM NAD^+ and 100 μM substrate at room temperature. Benzaldehyde was the substrate for ALDH3A1. Propanal was the substrate for all other isoforms. ALDH isoform activity was determined by monitoring the rate of NADH production through the increase in absorbance at 340 nm (ε=6220 M^−1cm^−1). For these assays, 1 unit is defined as the amount of enzyme that catalyzes the conversion of […] per minute. For every combination of dye and enzyme, 2 μM dye was preincubated with 2.0 mM NAD^+ in 50 mM triethanolamine solution (pH 7.4). The reaction was initiated by addition of 1 unit of ALDH. Dyes were excited at 590 nm, and fluorescence was measured continuously at 610 nm.

[9] = biological target: T1, ALDH1A1; assay: ALDH isoform selectivity of red probes: ALDH1A1; format: biochemical; conditions: for Enzyme Activity 1A1 / Enzymatic Turn On: Table 2; for Enzymatic Turn On: ALDH1A1, 2 μM dye
Method: as §1

[10] = Stability of the fluorophore against water-mediated decomposition; format: physicochemical
[11] = substrate: Cc1cc(C=O)c(F)c(F)c1C1=C2C=CC(=O)C=C2[Si](C)(C)c2cc(O)ccc21; assay: ALDH1A1 kinetics; format: biochemical, human; conditions: other: ALDH1A1, identical conditions; pH 7.4
Method: (§2) Solutions were prepared of 2.0 mM NAD+ and 0.1-2.5 μM AlDeSense or red-AlDeSense in 50 mM triethanolamine solution (pH 7.4). For every concentration, 1 unit of enzyme (as defined and determined in ALDH Isoform Selectivity) was added. Fluorescence was monitored for 30 seconds to determine V0. AlDeSense was excited at 490 nm and monitored at 510 nm. Red-AlDeSense was excited at 590 nm and monitored at 610 nm. Each condition was performed in triplicate. Protein concentration was determined using the Pierce™ BCA Protein Assay Kit. Data was analyzed using Microsoft Excel.

[12] = substrate: Cc1cc(C=O)ccc1-c1c2cc(F)c(=O)cc-2oc2cc(O)c(F)cc12; assay: ALDH1A1 kinetics; format: biochemical, human; conditions: other: ALDH1A1, identical conditions; pH 7.4
Method: as §2

Molecule	selectivity ALDH1A1 versus ALDH1A3 [8]	Enzyme Activity 1A3 [8]	turn-on response when treated with ALDH1A1 [9] [fold]	Enzyme Activity 1A1 [9]	Enzymatic Turn On [9]	Quantum Yield [7]	also measured
CC(=O)c1ccc(-c2c3cc(F)c(=O)cc-3oc3cc(O)c(F)cc23)c(C)c1 [Ctrl-AlDeSense]							fluorescence of e-CSC lungs versus non-CSC lungs [1]: not statistically different; toxicity in cell viability assay ([2]; K562 cells, 6, 12 and 24 hours): non-toxic; signal in e-CSC versus non-CSC tumors [3]: did not show increased signal; logD [4]: 0.87; pKa [5]: 4.47; Turn-on (fold) [6]: 0 fold; ε [7]: 68000 M⁻¹ cm⁻¹; λcm ([7]; Table 1): 518 nm; λabs ([7]; maximum absorbance): 496 nm; ΦF ([7]; prior to activation): 0.039
CC(=O)c1cc(F)c(C2=C3C=CC(=O)C=C3[Si](C)(C)c3cc(O)ccc32)c(C)c1F [Ctrl-red-AlDeSense, 10-(4-A cetyl-3,6-difluoro-2-methylphenyl)-7-hydroxy-5,5-dimethyldibenzo[b, e]silin-3(5H)-one]							toxicity in cell viability assay [2]: nontoxic
Cc1cc(C=O)ccc1C1=C2C=CC(=O)C=C2[Si](C)(C)c2cc(O)ccc21 [Probe 1, 4-(7-Hydroxy-5,5-dimethyl-3-oxo-3,5-dihydrodibenzo[b, e]silin-10-yl)-3-methylbenzaldehyde]	no longer selective for ALDH1A1	Medium	1.7	High	1.7	0.32	
C[Si]1(C)C2=CC(=O)C=CC2=C(c2ccc(C=O)cc2F)c2ccc(O)cc21 [Probe 2, 3-Fluoro-4-(7-hydroxy-5,5-dimethyl-3-oxo-3,5-dihydrodibenzo[b, e]silin-10-yl)benzaldehyde]							stability against water-mediated decomposition of the fluorophore [10]: rapid decomposition
C[Si]1(C)C2=CC(=O)C=CC2=C(c2ccc(C=O)cc2[N+](=O)[O-])c2ccc(O)cc21 [Probe 4, 4-(7-Hydroxy-5,5-dimethyl-3-oxo-3,5-dihydrodibenzo[b, e]silin-10-yl)-3-nitrobenzaldehyde]						0.00	
Cc1cc(C=O)c(F)cc1C1=C2C=CC(=O)C=C2[Si](C)(C)c2cc(O)ccc21 [Probe 5, 2-Fluoro-4-(7-hydroxy-5,5-dimethyl-3-oxo-3,5-dihydrodibenzo[b, e]silin-10-yl)-5-methylbenzaldehyde]		Low	2.6	High	2.6	0.21	
C[Si]1(C)C2=CC(=O)C=CC2=C(c2c(F)cc(C=O)cc2F)c2ccc(O)cc21 [Probe 6, 3,5-Difluoro-4-(7-hydroxy-5,5-dimethyl-3-oxo-3,5-dihydrodibenzo[b, e]silin-10-yl)benzaldehyde]	exhibited cross-reactivity with ALDH1A3	High	3.9	High	3.9	0.13	stability against water-mediated decomposition of the fluorophore [10]: prevent water-mediated decomposition
Cc1c(F)c(C=O)cc(F)c1C1=C2C=CC(=O)C=C2[Si](C)(C)c2cc(O)ccc21 [Probe 8, 2,5-Difluoro-4-(7-hydroxy-5,5-dimethyl-3-oxo-3,5-dihydrodibenzo[b, e]silin-0-yl)-3-methylbenzaldehyde]	selectivity was eroded	Medium		High	3.1	0.20	
Cc1cc(C(=O)O)ccc1-c1c2cc(F)c(=O)cc-2oc2cc(O)c(F)cc12 [oxidized AlDeSense]							toxicity in cell viability assay ([2]; K562 cells, 6, 12 and 24 hours): non-toxic
B1							kcat/Km [11]: 132000 M⁻¹ s⁻¹; kcat/Km [12]: 57700 M⁻¹ s⁻¹
